{"source": "PubChem BioAssay AID258", "about": "(DTP/NCI, 2004)", "tested_on": "CD2F1 mice, L1210 leukemia sc, survival T/C", "test": "NCI In Vivo Anticancer Drug Screen. Data for tumor model L1210 Leukemia (subcutaneous) in CD2F1 (CDF1) mice", "conditions": "endpoint: median survival time, higher = longer survival", "procedure,_shortened": "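Compound given to mice bearing transplantable tumor. Survival or tumor size then recorded. Result expressed relative to vehicle-dosed control group as T/C.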", "note": "Values joined by “and” are separate entries in the source; they are usually repeats but may differ in a detail not shown here. Equal entries are not always repeated. Toxic doses and inconclusive results are not listed."}
{"smiles": "O=c1[nH]c(=O)n(C2CC(O)C(CO)O2)cc1F", "note": "(stereo unspecified)", "values": [{"measurement": "T/C", "setting": "dose: 5.0 mg/kg/injection, schedule: Q01DX009 (ip), vehicle: saline", "result": "107 % of control"}, {"measurement": "T/C", "setting": "dose: 5.0 mg/kg/injection, schedule: Q01DX009 (sc), vehicle: saline", "result": "104 % of control"}, {"measurement": "T/C", "setting": "dose: 10.0 mg/kg/injection, schedule: Q01DX009 (ip), vehicle: saline", "result": "108 % of control"}, {"measurement": "T/C", "setting": "dose: 10.0 mg/kg/injection, schedule: Q01DX009 (sc), vehicle: saline", "result": "109 % of control"}, {"measurement": "T/C", "setting": "dose: 15.6 mg/kg/injection, schedule: Q01DX006 (ip), vehicle: saline", "result": "112 % of control"}, {"measurement": "T/C", "setting": "dose: 15.6 mg/kg/injection, schedule: Q01DX009 (ip), vehicle: saline", "result": "118 % of control"}, {"measurement": "T/C", "setting": "dose: 20.0 mg/kg/injection, schedule: Q01DX009 (ip), vehicle: saline", "result": "119 % of control"}, {"measurement": "T/C", "setting": "dose: 20.0 mg/kg/injection, schedule: Q01DX009 (sc), vehicle: saline", "result": "106 % of control and 121 % of control"}, {"measurement": "T/C", "setting": "dose: 30.0 mg/kg/injection, schedule: Q01DX009 (sc), vehicle: saline", "result": "107 % of control"}, {"measurement": "T/C", "setting": "dose: 31.3 mg/kg/injection, schedule: Q01DX006 (ip), vehicle: saline", "result": "106 % of control"}, {"measurement": "T/C", "setting": "dose: 31.3 mg/kg/injection, schedule: Q01DX009 (ip), vehicle: saline", "result": "118 % of control"}, {"measurement": "T/C", "setting": "dose: 31.3 mg/kg/injection, schedule: Q02DX005 (ip), vehicle: saline", "result": "112 % of control"}, {"measurement": "T/C", "setting": "dose: 31.3 mg/kg/injection, schedule: Q04DX003 (ip), vehicle: saline", "result": "112 % of control"}, {"measurement": "T/C", "setting": "dose: 40.0 mg/kg/injection, schedule: Q01DX009 (ip), vehicle: saline", "result": "122 % of control"}, {"measurement": "T/C", "setting": "dose: 40.0 mg/kg/injection, schedule: Q01DX009 (sc), vehicle: saline", "result": "122 % of control"}, {"measurement": "T/C", "setting": "dose: 60.0 mg/kg/injection, schedule: Q01DX009 (ip), vehicle: saline", "result": "124 % of control"}, {"measurement": "T/C", "setting": "dose: 62.5 mg/kg/injection, schedule: Q01DX001 (ip), vehicle: saline", "result": "112 % of control"}, {"measurement": "T/C", "setting": "dose: 62.5 mg/kg/injection, schedule: Q04DX003 (ip), vehicle: saline", "result": "100 % of control"}, {"measurement": "T/C", "setting": "dose: 80.0 mg/kg/injection, schedule: Q01DX009 (ip), vehicle: saline", "result": "118 % of control"}, {"measurement": "T/C", "setting": "dose: 120.0 mg/kg/injection, schedule: Q01DX009 (ip), vehicle: saline", "result": "110 % of control"}, {"measurement": "T/C", "setting": "dose: 120.0 mg/kg/injection, schedule: Q01DX009 (sc), vehicle: saline", "result": "106 % of control"}, {"measurement": "T/C", "setting": "dose: 125.0 mg/kg/injection, schedule: Q01DX001 (ip), vehicle: saline", "result": "112 % of control"}, {"measurement": "T/C", "setting": "dose: 125.0 mg/kg/injection, schedule: Q01DX009 (ip), vehicle: saline", "result": "150 % of control"}, {"measurement": "T/C", "setting": "dose: 125.0 mg/kg/injection, schedule: Q02DX005 (ip), vehicle: saline", "result": "118 % of control"}, {"measurement": "T/C", "setting": "dose: 125.0 mg/kg/injection, schedule: Q04DX003 (ip), vehicle: saline", "result": "112 % of control"}, {"measurement": "T/C", "setting": "dose: 130.0 mg/kg/injection, schedule: Q01DX Z (sc), vehicle: saline", "result": "116 % of control"}, {"measurement": "T/C", "setting": "dose: 160.0 mg/kg/injection, schedule: Q01DX009 (ip), vehicle: saline", "result": "106 % of control and 123 % of control"}, {"measurement": "T/C", "setting": "dose: 160.0 mg/kg/injection, schedule: Q01DX009 (sc), vehicle: saline", "result": "112 % of control"}, {"measurement": "T/C", "setting": "dose: 216.0 mg/kg/injection, schedule: Q01DX Z (sc), vehicle: saline", "result": "116 % of control"}, {"measurement": "T/C", "setting": "dose: 240.0 mg/kg/injection, schedule: Q01DX009 (ip), vehicle: saline", "result": "96 % of control"}, {"measurement": "T/C", "setting": "dose: 250.0 mg/kg/injection, schedule: Q01DX006 (ip), vehicle: saline", "result": "162 % of control"}, {"measurement": "T/C", "setting": "dose: 250.0 mg/kg/injection, schedule: Q01DX009 (ip), vehicle: saline", "result": "162 % of control"}, {"measurement": "T/C", "setting": "dose: 250.0 mg/kg/injection, schedule: Q02DX005 (ip), vehicle: saline", "result": "150 % of control"}, {"measurement": "T/C", "setting": "dose: 360.0 mg/kg/injection, schedule: Q01DX Z (sc), vehicle: saline", "result": "116 % of control"}, {"measurement": "T/C", "setting": "dose: 500.0 mg/kg/injection, schedule: Q02DX005 (ip), vehicle: saline", "result": "156 % of control"}, {"measurement": "T/C", "setting": "dose: 500.0 mg/kg/injection, schedule: Q04DX003 (ip), vehicle: saline", "result": "150 % of control"}, {"measurement": "T/C", "setting": "dose: 600.0 mg/kg/injection, schedule: Q01DX Z (sc), vehicle: saline", "result": "108 % of control"}, {"measurement": "T/C", "setting": "dose: 1000.0 mg/kg/injection, schedule: Q01DX001 (ip), vehicle: saline", "result": "150 % of control"}]}
{"smiles": "NC(Cc1ccccc1)C(=O)OCN1C(=O)C2C3C=CC(C2C1=O)C1C2C(=O)N(COC(=O)C(N)Cc4ccccc4)C(=O)C2C31", "note": "(stereo unspecified)", "values": [{"measurement": "T/C", "setting": "dose: 21.6 mg/kg/injection, schedule: Q01DX005 (iv), vehicle: other", "result": "107 % of control"}, {"measurement": "T/C", "setting": "dose: 21.6 mg/kg/injection, schedule: Q01DX009 (ip), vehicle: other", "result": "111 % of control"}, {"measurement": "T/C", "setting": "dose: 21.6 mg/kg/injection, schedule: Q01DX009 (ip), vehicle: water", "result": "107 % of control and 121 % of control"}, {"measurement": "T/C", "setting": "dose: 30.9 mg/kg/injection, schedule: Q01DX005 (iv), vehicle: other", "result": "105 % of control"}, {"measurement": "T/C", "setting": "dose: 30.9 mg/kg/injection, schedule: Q01DX009 (ip), vehicle: other", "result": "112 % of control"}, {"measurement": "T/C", "setting": "dose: 30.9 mg/kg/injection, schedule: Q01DX009 (ip), vehicle: water", "result": "107 % of control"}, {"measurement": "T/C", "setting": "dose: 36.0 mg/kg/injection, schedule: Q01DX009 (ip), vehicle: water", "result": "109 % of control"}, {"measurement": "T/C", "setting": "dose: 44.1 mg/kg/injection, schedule: Q01DX005 (iv), vehicle: other", "result": "111 % of control"}, {"measurement": "T/C", "setting": "dose: 44.1 mg/kg/injection, schedule: Q01DX009 (ip), vehicle: other", "result": "114 % of control"}, {"measurement": "T/C", "setting": "dose: 63.0 mg/kg/injection, schedule: Q01DX005 (iv), vehicle: other", "result": "117 % of control"}, {"measurement": "T/C", "setting": "dose: 90.0 mg/kg/injection, schedule: Q01DX009 (ip), vehicle: other", "result": "177 % of control"}, {"measurement": "T/C", "setting": "dose: 90.0 mg/kg/injection, schedule: Q01DX009 (ip), vehicle: water", "result": "169 % of control"}, {"measurement": "T/C", "setting": "dose: 100.0 mg/kg/injection, schedule: Q01DX009 (ip), vehicle: water", "result": "211 % of control"}, {"measurement": "T/C", "setting": "dose: 128.6 mg/kg/injection, schedule: Q01DX009 (ip), vehicle: other", "result": "221 % of control"}, {"measurement": "T/C", "setting": "dose: 128.6 mg/kg/injection, schedule: Q01DX009 (ip), vehicle: water", "result": "227 % of control"}, {"measurement": "T/C", "setting": "dose: 216.0 mg/kg/injection, schedule: Q01DX009 (oral), vehicle: water", "result": "122 % of control"}, {"measurement": "T/C", "setting": "dose: 441.0 mg/kg/injection, schedule: Q01DX009 (oral), vehicle: other", "result": "162 % of control"}, {"measurement": "T/C", "setting": "dose: 630.0 mg/kg/injection, schedule: Q01DX009 (oral), vehicle: other", "result": "234 % of control"}, {"measurement": "T/C", "setting": "dose: 630.0 mg/kg/injection, schedule: Q01DX009 (oral), vehicle: water", "result": "171 % of control"}, {"measurement": "T/C", "setting": "dose: 900.0 mg/kg/injection, schedule: Q01DX009 (oral), vehicle: water", "result": "270 % of control"}]}
{"smiles": "N=C(N)Cc1ccc(NC(=O)c2ccc(C(=O)Nc3ccc(CC(=N)N)cc3)cc2)cc1", "values": [{"measurement": "T/C", "setting": "dose: 8.4 mg/kg/injection, schedule: Q01DX Z (sc), vehicle: water", "result": "110 % of control"}, {"measurement": "T/C", "setting": "dose: 14.0 mg/kg/injection, schedule: Q01DX Z (sc), vehicle: water", "result": "105 % of control"}, {"measurement": "T/C", "setting": "dose: 23.0 mg/kg/injection, schedule: Q01DX Z (sc), vehicle: water", "result": "115 % of control"}, {"measurement": "T/C", "setting": "dose: 39.0 mg/kg/injection, schedule: Q01DX Z (sc), vehicle: water", "result": "110 % of control"}, {"measurement": "T/C", "setting": "dose: 65.0 mg/kg/injection, schedule: Q01DX Z (sc), vehicle: water", "result": "115 % of control"}]}
{"smiles": "C[C@]12C[C@H](O)[C@H]3[C@@H](CCC4=CC(=O)CC[C@@]43C)[C@@H]1CC[C@@H]2C(=O)CO", "values": [{"measurement": "T/C", "setting": "dose: 180.0 mg/kg/injection, schedule: Q01DX Z (sc), vehicle: methylcellulose (MC)", "result": "100 % of control"}]}
{"smiles": "CN1c2c(nc(N)[nH]c2=O)NCC1CCNc1ccc(C(=O)NC(CCC(=O)O)C(=O)O)cc1", "note": "(stereo unspecified)", "values": [{"measurement": "T/C", "setting": "dose: 200.0 mg/kg/injection, schedule: Q01DX009 (ip), vehicle: other", "result": "150 % of control"}, {"measurement": "T/C", "setting": "dose: 200.0 mg/kg/injection, schedule: Q01DX Z (ip), vehicle: other", "result": "155 % of control"}, {"measurement": "T/C", "setting": "dose: 200.0 mg/kg/injection, schedule: Q04DX003 (ip), vehicle: other", "result": "116 % of control"}, {"measurement": "T/C", "setting": "dose: 400.0 mg/kg/injection, schedule: Q01DX009 (ip), vehicle: other", "result": "155 % of control"}, {"measurement": "T/C", "setting": "dose: 400.0 mg/kg/injection, schedule: Q01DX Z (ip), vehicle: other", "result": "155 % of control and 166 % of control"}, {"measurement": "T/C", "setting": "dose: 400.0 mg/kg/injection, schedule: Q04DX003 (ip), vehicle: other", "result": "111 % of control"}, {"measurement": "T/C", "setting": "dose: 1600.0 mg/kg/injection, schedule: Q04DX003 (ip), vehicle: other", "result": "111 % of control"}]}
